IC50, Ratio IC50 and inhibition data for 16 compounds are collected here from ChEMBL document CHEMBL4834473, “Novel hydroxybenzylamine-deoxyvasicinone hybrids as anticholinesterase therapeutics for Alzheimer's disease” (Bioorg Med Chem, 2021).

The target of experiment [1] is Acetylcholinesterase (Electrophorus electricus, UniProt O42275). In words: Inhibition of Electric eel AChE using acetylthiocholine iodide as substrate preincubated for 10 mins followed by addition of substrate and measured after 15 mins by Ellman's method.
Chain of Acetylcholinesterase (O42275 whole entry): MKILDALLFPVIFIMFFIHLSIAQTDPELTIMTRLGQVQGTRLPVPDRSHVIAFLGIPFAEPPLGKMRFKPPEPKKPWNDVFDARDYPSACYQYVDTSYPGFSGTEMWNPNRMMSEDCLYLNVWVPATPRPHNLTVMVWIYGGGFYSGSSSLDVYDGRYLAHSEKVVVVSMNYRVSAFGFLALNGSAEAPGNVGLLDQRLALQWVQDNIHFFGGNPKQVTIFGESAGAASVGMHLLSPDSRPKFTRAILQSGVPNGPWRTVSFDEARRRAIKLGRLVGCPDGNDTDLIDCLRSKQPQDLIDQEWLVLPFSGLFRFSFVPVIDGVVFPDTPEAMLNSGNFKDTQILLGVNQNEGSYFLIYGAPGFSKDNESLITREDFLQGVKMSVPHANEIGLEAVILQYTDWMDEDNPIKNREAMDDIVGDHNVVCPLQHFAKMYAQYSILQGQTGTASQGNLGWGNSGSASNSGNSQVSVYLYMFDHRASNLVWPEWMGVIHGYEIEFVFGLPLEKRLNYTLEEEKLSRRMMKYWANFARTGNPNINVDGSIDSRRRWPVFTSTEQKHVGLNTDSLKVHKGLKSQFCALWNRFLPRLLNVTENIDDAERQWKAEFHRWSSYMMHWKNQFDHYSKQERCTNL
For experiment [2], the target named is Cholinesterase (Equus caballus, UniProt P81908). In words: Inhibition of equine serum BChE using butyrylthiocholine iodide as substrate preincubated for 10 mins followed by addition of substrate and measured after 15 mins by Ellman's method. It is filed as cell-free. In general terms: DTNB colorimetry detects thiols as they appear.
Chain of Cholinesterase (P81908 whole entry): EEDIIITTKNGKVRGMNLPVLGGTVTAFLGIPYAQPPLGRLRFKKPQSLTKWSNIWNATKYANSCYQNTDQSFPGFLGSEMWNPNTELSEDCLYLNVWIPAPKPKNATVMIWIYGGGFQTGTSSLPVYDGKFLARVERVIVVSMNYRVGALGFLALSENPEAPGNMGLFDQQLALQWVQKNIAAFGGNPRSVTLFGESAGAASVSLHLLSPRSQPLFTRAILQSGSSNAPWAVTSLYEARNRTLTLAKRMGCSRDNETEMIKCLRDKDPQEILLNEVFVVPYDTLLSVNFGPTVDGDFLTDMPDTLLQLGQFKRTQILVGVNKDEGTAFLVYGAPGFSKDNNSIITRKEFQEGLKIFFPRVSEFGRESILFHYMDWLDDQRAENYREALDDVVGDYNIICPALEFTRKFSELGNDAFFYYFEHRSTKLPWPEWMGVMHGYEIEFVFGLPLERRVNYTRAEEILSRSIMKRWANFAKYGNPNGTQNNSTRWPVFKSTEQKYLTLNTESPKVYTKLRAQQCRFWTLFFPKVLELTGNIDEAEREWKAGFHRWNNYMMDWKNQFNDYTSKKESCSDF
For experiment [3], the target named is Amyloid-beta precursor protein (Homo sapiens, UniProt P05067). Description: Inhibition of human amyloid beta (1 to 42) self-induced aggregation measured after 48 hrs by ThT flourescence assay.
Chain of Amyloid-beta precursor protein (P05067 whole entry): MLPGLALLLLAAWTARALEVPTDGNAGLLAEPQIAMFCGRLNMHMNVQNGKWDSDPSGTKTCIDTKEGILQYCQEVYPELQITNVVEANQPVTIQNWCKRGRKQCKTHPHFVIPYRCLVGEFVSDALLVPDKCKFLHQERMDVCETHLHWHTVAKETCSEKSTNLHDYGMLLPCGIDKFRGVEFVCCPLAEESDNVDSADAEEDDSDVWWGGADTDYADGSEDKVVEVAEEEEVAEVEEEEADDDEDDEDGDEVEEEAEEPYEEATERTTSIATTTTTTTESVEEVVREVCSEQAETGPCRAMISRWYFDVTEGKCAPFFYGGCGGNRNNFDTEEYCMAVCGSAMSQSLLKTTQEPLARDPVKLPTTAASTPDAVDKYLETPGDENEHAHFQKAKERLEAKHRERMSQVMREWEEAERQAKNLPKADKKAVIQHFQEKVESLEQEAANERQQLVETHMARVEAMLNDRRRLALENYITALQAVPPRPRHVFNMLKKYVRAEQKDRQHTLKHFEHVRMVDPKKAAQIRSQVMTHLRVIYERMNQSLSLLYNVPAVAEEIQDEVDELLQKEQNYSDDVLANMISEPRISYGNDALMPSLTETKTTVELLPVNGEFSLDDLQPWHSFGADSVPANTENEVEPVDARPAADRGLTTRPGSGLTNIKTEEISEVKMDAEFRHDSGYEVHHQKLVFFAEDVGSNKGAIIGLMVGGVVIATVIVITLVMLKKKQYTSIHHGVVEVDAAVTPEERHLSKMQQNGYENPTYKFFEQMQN
The nature of experiment [4]: Selectivity index, ratio of IC50 for equine serum BChE to IC50 for electric eel AChE.
The target in experiment [5] is Acetylcholinesterase (Homo sapiens) (UniProt P22303). In words: Inhibition of AChE (unknown origin)-induced amyloid beta (1 to 42) aggregation at 1 to 5 uM measured after 24 hrs by ThT flourescence assay. Particulars: dose 1-5 µM.
Chain of Acetylcholinesterase (Homo sapiens) (P22303 whole entry): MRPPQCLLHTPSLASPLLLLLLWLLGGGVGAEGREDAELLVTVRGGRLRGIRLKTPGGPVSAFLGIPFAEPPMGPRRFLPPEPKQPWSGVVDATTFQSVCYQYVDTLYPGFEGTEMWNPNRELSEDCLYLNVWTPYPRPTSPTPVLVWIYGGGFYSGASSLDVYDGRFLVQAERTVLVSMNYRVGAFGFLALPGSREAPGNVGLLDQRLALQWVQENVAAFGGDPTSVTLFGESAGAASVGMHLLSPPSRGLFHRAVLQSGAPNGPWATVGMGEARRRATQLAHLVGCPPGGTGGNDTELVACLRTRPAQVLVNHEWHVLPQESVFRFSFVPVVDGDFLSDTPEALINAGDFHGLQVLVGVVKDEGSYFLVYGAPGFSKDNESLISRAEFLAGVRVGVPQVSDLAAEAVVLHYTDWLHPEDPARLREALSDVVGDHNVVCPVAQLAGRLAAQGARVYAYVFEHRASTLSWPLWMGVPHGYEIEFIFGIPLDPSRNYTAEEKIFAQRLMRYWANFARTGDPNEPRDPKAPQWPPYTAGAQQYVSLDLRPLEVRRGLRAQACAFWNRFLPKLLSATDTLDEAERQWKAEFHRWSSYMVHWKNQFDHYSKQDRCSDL
Experiment [6] concerns the target Acetylcholinesterase (Electrophorus electricus) (UniProt O42275). In words: Non-competitive/mixed inhibition of electric eel AChE using varying concentrations of acetylthiocholine iodide as substrate at 0.16 to 0.64 uM measured every 2 mins for 10 mins by Lineweaver-Burk plot analysis. Particulars: dose 0.16-0.64 µM.

Active and inactive are the calls of the source. No cut-off for these calls is given here.

A word on the IC50: it is the point on the concentration scale where inhibition reaches its midpoint. As usually defined, the inhibition is the share of the control response that was lost under treatment.

Chain of Acetylcholinesterase (Electrophorus electricus) (O42275 24-633 limits assumed): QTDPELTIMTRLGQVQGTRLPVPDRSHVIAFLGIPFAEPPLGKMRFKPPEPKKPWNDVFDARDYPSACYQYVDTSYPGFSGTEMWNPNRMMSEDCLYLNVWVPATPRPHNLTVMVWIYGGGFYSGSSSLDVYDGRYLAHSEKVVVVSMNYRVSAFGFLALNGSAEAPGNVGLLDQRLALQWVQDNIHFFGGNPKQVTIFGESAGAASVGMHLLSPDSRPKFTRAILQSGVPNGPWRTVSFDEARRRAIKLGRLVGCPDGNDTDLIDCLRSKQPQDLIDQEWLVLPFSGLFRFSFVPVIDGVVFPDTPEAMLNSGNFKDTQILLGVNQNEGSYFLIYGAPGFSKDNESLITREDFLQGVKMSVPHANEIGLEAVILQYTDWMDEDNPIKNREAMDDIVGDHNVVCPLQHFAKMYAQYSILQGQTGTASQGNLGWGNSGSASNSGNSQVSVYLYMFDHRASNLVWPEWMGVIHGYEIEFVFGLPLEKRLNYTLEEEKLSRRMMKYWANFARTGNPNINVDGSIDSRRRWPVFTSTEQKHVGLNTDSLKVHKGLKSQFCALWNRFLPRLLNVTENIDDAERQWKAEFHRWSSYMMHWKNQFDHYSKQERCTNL

In the case of `O=c1c2cc(NCc3ccccc3O)ccc2nc2n1CCC2`, the IC50 was 1.53 µM in experiment [1], 18.2 µM in experiment [2] and 4.69 µM in experiment [3]. Moreover, the Ratio IC50 in experiment [4] is 11.9. This compound showed an inhibition in experiment [5] of 49%.
For `Cc1cc2nc3n(c(=O)c2cc1NCc1cccc(Br)c1O)CCC3`, the values for the IC50 in experiment [1], in experiment [2] and in experiment [3] were 6.35 µM, 21.6 µM and 9.27 µM, respectively. The Ratio IC50 in experiment [4] amounted to 3.4.
As for `Oc1c(I)cc(Cl)c2cccnc12` [CLIOQUINOL], 9.8 µM corresponded to half-maximal inhibition in experiment [3] (IC50). In experiment [5], this compound came in with an inhibition of 11.5%.
With `COc1ccc(CNc2cc3c(=O)n4c(nc3cc2C)CCC4)c(O)c1`, the 50% inhibitory concentration (IC50) in experiment [1] was 0.34 µM; in experiment [2] it was 14.6 µM; in experiment [3], 3.22 µM. In experiment [4], the Ratio IC50 turned out to be 42.9. Further, the inhibition entry in experiment [6] is “Active”. In experiment [5], this compound had an inhibition of 72.6%.
`O=c1c2cc(NCc3cc(F)ccc3O)ccc2nc2n1CCC2`: the IC50 came out at 2.51 µM in experiment [1], 19.9 µM in experiment [2] and 6.3 µM in experiment [3]. The Ratio IC50 in experiment [4] was found to be 7.91.
On to `Cc1cc2nc3n(c(=O)c2cc1NCc1cc(Br)ccc1O)CCC3`, for which the IC50 in experiment [1] was 5.27 µM; in experiment [2], 20.8 µM; in experiment [3], 7.37 µM. Besides, the Ratio IC50 in experiment [4] was 3.95.
On the same counts, the results for `O=c1c2cc(NCc3ccc(Cl)cc3O)ccc2nc2n1CCC2` are 4.78 µM, 21.7 µM, 7.02 µM and 4.52.
On the same counts, the results for `O=c1c2cc(NCc3cc(Br)ccc3O)ccc2nc2n1CCC2` are 5.51 µM, 21.5 µM, 7.63 µM and 3.9.
For the compound `COc1cccc(CNc2cc3c(=O)n4c(nc3cc2C)CCC4)c1O`, the figures for the IC50 in experiment [1], in experiment [2] and in experiment [3] were 0.83 µM, 16.2 µM and 4.26 µM, respectively. Also, in experiment [4], the Ratio IC50 was 19.5. The inhibition in experiment [5] was found to be 55%.
On the same counts, the results for `Cc1cc2nc3n(c(=O)c2cc1NCc1ccccc1O)CCC3` are 1.58 µM, 18.5 µM, 5.09 µM, 11.7 and 40.2%.
`COc1ccc(CNc2ccc3nc4n(c(=O)c3c2)CCC4)c(O)c1`: the figures for the IC50 in experiment [1], in experiment [2] and in experiment [3] were 0.38 µM, 15.4 µM and 3.91 µM, respectively. Moreover, in experiment [4], the Ratio IC50 came to 40.5. In addition, in experiment [5], the inhibition came out at 68.7%.
For `COc1cccc(CNc2ccc3nc4n(c(=O)c3c2)CCC4)c1O`, the 50% inhibitory concentration (IC50) in experiment [1] was determined as 0.9 µM; in experiment [2] it was 16.1 µM; in experiment [3], 4.2 µM. The Ratio IC50 in experiment [4] stood at 17.8. In experiment [5], this compound registered an inhibition of 55.1%.
With `O=c1c2cc(NCc3cccc(Br)c3O)ccc2nc2n1CCC2`, the IC50 in experiment [1] turned out to be 5.8 µM; in experiment [2], 20.9 µM; in experiment [3], 8.34 µM. For the same compound, in experiment [4], the Ratio IC50 turned out to be 3.6.
For `Cc1cc2nc3n(c(=O)c2cc1NCc1cc(F)ccc1O)CCC3` the same measures were 2.7 µM, 20.4 µM, 6.33 µM and 7.56.
Consider `Cc1cc2nc3n(c(=O)c2cc1NCc1ccc(Cl)cc1O)CCC3`, for which the IC50 in experiment [1] is 3.07 µM; in experiment [2], 20.5 µM; in experiment [3], 6.1 µM. In addition, in experiment [4], the Ratio IC50 was 6.68.
For the compound `O=c1c2ccccc2nc2n1CCC2` [DEOXYVASICINONE], the IC50 in experiment [1] was determined as 24 µM; in experiment [2] it was 25 µM. The compound also came in with an inhibition in experiment [5] of 3.83%.
